From patent publication US20110186457A1, “NOVEL SINGLE UNIT CARBAPENEM AMINOGLYCOSIDE FORMULATIONS” (priority 2008, published 2011) come the findings set out here.

The MIC is the smallest concentration in the dilution series that meets the test's criterion for growth inhibition.

For series [1], the system named is renal tissue of Mus musculus mice. Description: Oxidative stress and kidney toxicity markers in renal tissue after repeated antibiotic administration to mice. In kind it is in vivo.
Series [2] deals with A. baumannii (1425 MTCC). Description: Zone of inhibition. In kind it is cell-based. Also on record: unit not given beside the values. An excerpt:
(§1) Where X and Y are respective additive agents mixed in the formulation with water for injection.

For series [3], the system named is K. pneumoniae (10031 ATCC). Description: Zone of inhibition. It counts as cell-based. Also on record: unit not given beside the values.
Text: as §1

Series [4] deals with P. aeruginosa (1688 MTCC). Description: Zone of inhibition. It counts as cell-based. Also on record: unit not given beside the values.
Text: as §1

Series [5] relates to C. braakii (2690 MTCC). Description: Zone of inhibition. Set-up: unit not given here. It counts as cell-based.
Text: as §1

Series [6] relates to E. coli (1687 MTCC). Nature of the series: Zone of inhibition. It counts as cell-based. Set-up: unit not given here.
Text: as §1

Series [7] relates to P. vulgaris (426 MTCC). Nature of the series: Zone of inhibition. Also on record: unit not given here. In kind it is cell-based.
Text: as §1

The test system of series [8] is S. aureus (737 MTCC). Description: Zone of inhibition. In kind it is cell-based. Also on record: unit not given here.
Text: as §1

Series [9] has as its system K. pneumoniae 10031(ATCC). Description: In-vitro microbial efficacy (MIC). In kind it is cell-based.
In series [10] the test system is P. vulgaris MTCC 426. Description: In-vitro microbial efficacy (MIC). In kind it is cell-based.
Series [11] has as its system P. aeruginosa MTCC 1688. Description: In-vitro microbial efficacy (MIC). In kind it is cell-based.
Series [12] has as its system E. coli MTCC 1687. Nature of the series: In-vitro microbial efficacy (MIC). It counts as cell-based.
Series [13] deals with B. subtilis MTCC 736. Description: In-vitro microbial efficacy (MIC). It counts as cell-based.
The test system of series [14] is E. cloacae MTCC 509. Nature of the series: In-vitro microbial efficacy (MIC). In kind it is cell-based.
Series [15] concerns S. aureus MTCC 737. Description: In-vitro microbial efficacy (MIC). It counts as cell-based.
Series [16] deals with C. braakii MTCC 2690. Description: In-vitro microbial efficacy (MIC). In kind it is cell-based.
Series [17] deals with M. smegmatis MTCC 995. Nature of the series: In-vitro microbial efficacy (MIC). In kind it is cell-based.
In series [18] the test system is A. baumanii MTCC 1425. Description: In-vitro microbial efficacy (MIC). In kind it is cell-based.
Series [19] relates to N. mucosa MTCC 1722. Description: In-vitro microbial efficacy (MIC). It counts as cell-based.
Series [20] relates to MRSA. Description: In-vitro microbial efficacy (MIC). It counts as cell-based.

≈ marks a conversion by molar mass, not a printed value. Where “and” joins values, the source holds several entries; their conditions need not be identical. Equal values may be shown once. Read-outs that look alike come from different tables or passages of the source.

Take `NCC[C@H](O)C(=O)N[C@@H]1C[C@H](N)[C@@H](O[C@H]2O[C@H](CN)[C@@H](O)[C@H](O)[C@H]2O)[C@H](O)[C@H]1O[C@H]1O[C@H](CO)[C@@H](O)[C@H](N)[C@H]1O` [Amikacin]: in series [1] (mouse, in vivo), the “Catalase activity in renal tissue” value is given as “decrease”, the “Glutathione reductase activity in renal tissue” value (shortened to “Glutathione reductase activity”) is listed as “decrease”, the “MDA activity in renal tissue” value was “increase” and the “SOD activity in renal tissue” value is given as “decrease”.
In the case of `C[C@@H](O)[C@H]1C(=O)N2C(C(=O)O)=C(S[C@@H]3CN[C@H](C(=O)Nc4cccc(C(=O)O)c4)C3)[C@H](C)[C@H]12` [Ertapenem], the “Zone of Inhibition” value in series [2] (drug concentration 0.005 mcg) is given as “Nil”; in series [2] (drug concentration 0.05 mcg) it was 13.37; in series [2] (drug concentration 0.5 mcg) it was 18.25; in series [3] (drug concentration 0.005 mcg), “Nil”; in [3] (drug concentration 0.05 mcg), “Nil”; in [3] (drug concentration 0.5 mcg) it was 15.90. The “Zone of Inhibition” value in series [4] (drug concentration 0.005 mcg) is listed as “Nil”; in [4] (drug concentration 0.05 mcg) it was “Nil”; in series [4] (drug concentration 0.5 mcg), “Nil”; in series [5] (drug concentration 0.005 mcg), 10.52; in [5] (drug concentration 0.05 mcg) it was 18.95; in series [5] (drug concentration 0.5 mcg), 27.88. Moreover, the “Zone of Inhibition” value in [6] (drug concentration 0.005 mcg) worked out at 10.10; in [6] (drug concentration 0.05 mcg), 15.49; in series [6] (drug concentration 0.5 mcg), 21.45; in series [6] (drug concentration 1.0 mcg), 23.39; in series [7] (drug concentration 0.005 mcg), 9.54; in series [7] (drug concentration 0.05 mcg), 16.74. Further, the “Zone of Inhibition” value in series [7] (drug concentration 0.5 mcg) amounted to 18.50; in [8] (drug concentration 0.005 mcg), 9.44; in series [8] (drug concentration 0.05 mcg), 14.55; in series [8] (drug concentration 0.5 mcg) it was 21.33.
For the compound `CCN[C@@H]1C[C@H](N)[C@@H](O[C@H]2O[C@H](CN)CC[C@H]2N)[C@H](O)[C@H]1O[C@H]1OC[C@](C)(O)[C@H](NC)[C@H]1O` [Etimicin], the MIC stood at 8 µg/mL (≈ 16.8 µM) in series [9]; 4 µg/mL (≈ 8.38 µM) in series [10]; 8 µg/mL (≈ 16.8 µM) in [11]; 0.125 µg/mL (≈ 0.262 µM) in [12]; 8 µg/mL (≈ 16.8 µM) in series [13]; 2 µg/mL (≈ 4.19 µM) in series [14]. For the same compound, the MIC turned out to be 8 µg/mL (≈ 16.8 µM) in series [15]; 2 µg/mL (≈ 4.19 µM) in [16]; 2 µg/mL (≈ 4.19 µM) in [17]; 2 µg/mL (≈ 4.19 µM) in [18]; 1 µg/mL (≈ 2.09 µM) in [19]; 4 µg/mL (≈ 8.38 µM) in [20]. Also, the “Zone of Inhibition” value is “Nil” in series [2] (drug concentration 0.005 mcg); 13.5 and 12.88 in series [2] (drug concentration 0.5 mcg); “nil and Nil” in series [3] (drug concentration 0.005 mcg); “nil and Nil” in series [3] (drug concentration 0.05 mcg); 16.64 and 16.50 in [3] (drug concentration 0.5 mcg); “Nil” in series [4] (drug concentration 0.005 mcg). Further, the “Zone of Inhibition” value in series [4] (drug concentration 0.05 mcg) is “Nil”; in series [4] (drug concentration 0.5 mcg), 12.49 and 12.60; in [5] (drug concentration 0.005 mcg), “Nil”; in series [5] (drug concentration 0.05 mcg), “Nil”; in [5] (drug concentration 0.5 mcg), 18.70 and 19.10; in series [6] (drug concentration 0.005 mcg), “Nil”. Also, the “Zone of Inhibition” value in [6] (drug concentration 0.05 mcg) is 9.42 and 9.31; in [6] (drug concentration 0.5 mcg), 16.50 and 15.70; in [6] (drug concentration 1.0 mcg) it was 17.57; in [7] (drug concentration 0.005 mcg) it was “Nil”; in [7] (drug concentration 0.05 mcg), “Nil”; in series [7] (drug concentration 0.5 mcg), 15.19 and 13.97. Moreover, the “Zone of Inhibition” value is “Nil” in series [8] (drug concentration 0.005 mcg); 11.15 and 10.12 in series [8] (drug concentration 0.05 mcg); 17.50 and 16.65 in series [8] (drug concentration 0.5 mcg). Besides, in [1] (Mus musculus mice, repeated administration for 7 days consecutively (FIG. 5)), the “Creatnine level in renal tissue” value is “significantly decreased”. Besides, the “SOD activity in renal tissue” value in series [1] (mice, after administration of antibiotic (FIG. 1)) was “decrease”. For the same compound, the “Catalase activity in renal tissue” value in [1] (mice, after administration of antibiotic (FIG. 2)) was “decrease”. For the same compound, the “MDA activity in renal tissue” value in series [1] (mice, after administration of antibiotic (FIG. 3)) is “increase”. In addition, in series [1] (mice, after administration of antibiotic (FIG. 4)), the “Glutathione reductase activity” value is “decrease”.
With `C[C@@H](O)[C@H]1C(=O)N2C(C(=O)O)=C(S[C@@H]3CN[C@H](C(=O)N(C)C)C3)[C@H](C)[C@H]12` [Meropenem], the MIC in series [9] (Klebsiella pneumoniae, read-out: MIC) came out at 1 µg/mL (≈ 2.61 µM); in [10] (Proteus vulgaris, MTCC426, read-out: MIC), 0.0625 µg/mL (≈ 0.163 µM); in [11] (Pseudomonas aeruginosa, MTCC1688, read-out: MIC), 2 µg/mL (≈ 5.22 µM); in [12] (Escherichia coli, MTCC1687, read-out: MIC) it was 0.0625 µg/mL (≈ 0.163 µM); in series [13] (Bacillus subtilis, MTCC736, read-out: MIC), 2 µg/mL (≈ 5.22 µM); in [14] (Enterobacter cloacae, MTCC509, read-out: MIC) it was 0.125 µg/mL (≈ 0.326 µM). Besides, the minimal inhibitory concentration (MIC) in series [15] (Staphylococcus aureus, MTCC737, read-out: MIC) is 0.5 µg/mL (≈ 1.3 µM); in series [16] (Citrobacter braakii, MTCC2690, read-out: MIC) it was 0.25 µg/mL (≈ 0.652 µM); in series [17] (Mycolicibacterium smegmatis, MTCC995, read-out: MIC) it was 0.25 µg/mL (≈ 0.652 µM); in [18] (Acinetobacter baumannii, MTCC1425, read-out: MIC), 0.125 µg/mL (≈ 0.326 µM); in [19] (read-out: MIC) it was 0.125 µg/mL (≈ 0.326 µM); in series [20] (Staphylococcus aureus, read-out: MIC), 0.5 µg/mL (≈ 1.3 µM). For the same compound, the “Zone of Inhibition” value in series [2] (drug concentration 0.005 mcg) is on record as “Nil”; in [2] (drug concentration 0.05 mcg) it was 14.50; in series [2] (drug concentration 0.5 mcg), 19.81; in [3] (drug concentration 0.005 mcg), “Nil”; in series [3] (drug concentration 0.05 mcg), 14.36; in series [3] (drug concentration 0.5 mcg), 23.87. The “Zone of Inhibition” value was “Nil” in [4] (drug concentration 0.005 mcg); 13.64 in series [4] (drug concentration 0.05 mcg); 21.85 in series [4] (drug concentration 0.5 mcg); 9.35 in series [5] (drug concentration 0.005 mcg); 23.35 in series [5] (drug concentration 0.05 mcg); 28.60 in [5] (drug concentration 0.5 mcg). In addition, the “Zone of Inhibition” value in series [6] (drug concentration 0.005 mcg) turned out to be 8.88; in [6] (drug concentration 0.05 mcg) it was 15.70; in series [6] (drug concentration 0.5 mcg), 22.97; in series [7] (drug concentration 0.005 mcg), 10.84; in [7] (drug concentration 0.05 mcg), 18.01; in [7] (drug concentration 0.5 mcg), 21.32. The “Zone of Inhibition” value in series [8] (drug concentration 0.005 mcg) is listed as 11.45; in series [8] (drug concentration 0.05 mcg) it was 16.29; in series [8] (drug concentration 0.5 mcg), 22.76. Further, the “Catalase activity in renal tissue” value in [1] (mouse, in vivo) is recorded as “decrease”. In addition, in [1] (mouse, in vivo), the “Glutathione reductase activity” value is reported as “decrease”. Moreover, the “MDA activity in renal tissue” value in series [1] (mouse, in vivo) was “increase”. In addition, the “SOD activity in renal tissue” value in series [1] (mouse, in vivo) is given as “decrease”.
As to `NC[C@H]1O[C@H](O[C@H]2[C@H](O)[C@@H](O[C@H]3O[C@H](CO)[C@@H](O)[C@H](N)[C@H]3O)[C@H](N)C[C@@H]2N)[C@H](N)C[C@@H]1O` [Tobramycin], in series [1] (mouse, in vivo), the “Catalase activity in renal tissue” value is listed as “decrease”, the “Glutathione reductase activity” value is recorded as “decrease”, the “MDA activity in renal tissue” value is recorded as “increase” and the “SOD activity in renal tissue” value is “decrease”.
